The values below come from patent US20150141381A1, “TETRACYCLINE COMPOUNDS HAVING TARGET THERAPEUTIC ACTIVITIES” (Paratek Pharmaceuticals, Inc., priority 2001, published 2015).

Where two headings read alike, the source gives them in different places.

For test [1], the system named is S. aureus RN450. The test is described as follows: In Vitro Anti-Bacterial Activity Assay (MIC), gram positive. The format is cell-based. To be noted: for MIC: Staphylococcus aureus, RN450, 18 h.
The subject of test [2] is E. coli mL308 225. The test is described as follows: In Vitro Anti-Bacterial Activity Assay (MIC), gram negative. The following applies: for MIC: Escherichia coli, ML308225, 18 h. The class given is cell-based.
[3] abbreviates: read-out: Antibiotic Activity Gram +.
Setting [4] is: read-out: Antibiotic Activity Gram −.
Where [5] appears, read: MIC class, Table 3, read-out: Antibiotic Activity Gram +.
Setting [6] is: MIC class, Table 3, read-out: Antibiotic Activity Gram −.
The mark [7] stands for this setting: gram positive bacteria, read-out: Antibiotic Activity Gram + (MIC).
[8] abbreviates: gram negative bacteria, read-out: Antibiotic Activity Gram − (MIC).
[9] abbreviates: MIC class, Table 3 (Continued), read-out: Gram+ activity.
[10] abbreviates: MIC class, Table 3 (Continued), read-out: Gram− activity.

Turning to `COc1ccc(OC(=O)Nc2cc(N(C)C)c3c(c2O)C(=O)C2=C(O)[C@]4(O)C(=O)C(C(N)=O)=C(O)[C@H](N(C)C)[C@@H]4C[C@@H]2C3)cc1` [DV], the MIC in test [1] (setting [3]) and in test [2] (setting [4]) was > 4 µg/mL in each case.

Take `CN(C)c1cc(NC(=O)Nc2ccc(Cl)cc2[N+](=O)O)c(O)c2c1C[C@H]1C[C@H]3[C@H](N(C)C)C(O)=C(C(N)=O)C(=O)[C@@]3(O)C(O)=C1C2=O` [DC]: the MIC was < 4 µg/mL in test [1] (setting [5]) and > 4 µg/mL in test [2] (setting [6]).

Consider `CN(C)[C@@H]1C(O)=C(C(N)=O)C(=O)[C@@]2(O)C(O)=C3C(=O)c4c(O)ccc(-c5ccc(NC(=O)c6ccno6)cc5)c4C[C@H]3C[C@@H]12` [IN], for which the results for the MIC in test [1] (setting [5]) and in test [2] (setting [6]) were < 4 µg/mL and > 4 µg/mL, respectively.

As for `CN(C)c1cc(CNCCCC(F)(F)F)c(O)c2c1C[C@H]1C[C@H]3[C@H](N(C)C)C(O)=C(C(N)=O)C(=O)[C@@]3(O)C(O)=C1C2=O`, the MIC in test [1] (setting [7]) and in test [2] (setting [8]) was < 4 µg/mL throughout.

For the molecule `CN(C)[C@@H]1C(O)=C(C(N)=O)C(=O)[C@@]2(O)C(O)=C3C(=O)c4c(O)c(CS(C)(=O)=O)cc(I)c4C[C@H]3C[C@@H]12`, the results for the MIC in test [1] (setting [7]) and in test [2] (setting [8]) were < 4 µg/mL and > 4 µg/mL, respectively.

As for `CN(C)C(=O)c1ccc(O)c2c1C[C@H]1C[C@H]3[C@H](N(C)C)C(O)=C(C(N)=O)C(=O)[C@@]3(O)C(O)=C1C2=O`, the MIC was < 4 µg/mL in test [1] (setting [7]) and > 4 µg/mL in test [2] (setting [8]).

On to `CCCCOc1cccc2c1C(=O)C1=C(O)[C@]3(O)C(=O)C(C(N)=O)=C(O)[C@@H](N(C)C)[C@@H]3[C@@H](O)[C@@H]1[C@H]2C`, for which the MIC in test [1] (setting [7]) and in test [2] (setting [8]) was > 4 µg/mL throughout.

Take `CCOC(=O)/C(I)=C/C(=C/c1ccc(O)c2c1C[C@H]1C[C@H]3[C@H](N(C)C)C(O)=C(C(N)=O)C(=O)[C@@]3(O)C(O)=C1C2=O)C(=O)OCC` [AX]: the MIC in test [1] (setting [5]) and in test [2] (setting [6]) was > 4 µg/mL throughout.

`CN(C)CC(=O)NCc1cc(N(C)C)c2c(c1O)C(=O)C1=C(O)[C@]3(O)C(=O)C(C(N)=O)=C(O)[C@@H](N(C)C)[C@@H]3C[C@@H]1C2`: the values for the MIC in test [1] (setting [7]) and in test [2] (setting [8]) were < 4 µg/mL and > 4 µg/mL, respectively.

Take `CCOP(=O)(OCC)C(Nc1cc(N(C)C)c2c(c1O)C(=O)C1=C(O)[C@]3(O)C(=O)C(C(N)=O)=C(O)[C@@H](N(C)C)[C@@H]3C[C@@H]1C2)c1ccccc1` (stereo partly drawn) [AA]: the MIC in test [1] (setting [3]) and in test [2] (setting [4]) was > 4 µg/mL each time.

In the case of `CN(C)c1cc(C=O)c(O)c2c1C[C@H]1C[C@H]3[C@@H](N(C)C)C(O)=C(C(N)=O)C(=O)[C@@]3(O)C(O)=C1C2=O` [NM], the MIC in test [1] (setting [5]) and in test [2] (setting [6]) was < 4 µg/mL each time.

Turning to `CC(C)CNCc1cc(N(C)C)c2c(c1O)C(=O)C1=C(O)[C@]3(O)C(=O)C(C(N)=O)=C(O)[C@@H](N(C)C)[C@@H]3C[C@@H]1C2` [drawing 3475], the “Antibiotic Activity Gram + (MIC)” value in test [1] (gram positive bacteria) is reported as “* (compounds with an MIC of greater than 4 μg/ml are indicated with *)”. Moreover, in test [2] (gram negative bacteria), the “Antibiotic Activity Gram − (MIC)” value was “* (compounds with an MIC of greater than 4 μg/ml are indicated with *)”.

For the molecule `CN(C)[C@@H]1C(O)=C(C(N)=O)C(=O)[C@@]2(O)C(O)=C3C(=O)c4c(O)ccc(-c5ccc(CNCCF)cc5)c4C[C@H]3C[C@@H]12`, the MIC in test [1] (setting [7]) and in test [2] (read-out: Antibiotic Activity Gram − (MIC)) was < 4 µg/mL each time.

Regarding `COc1ccc(CN2CCCC2)cc1-c1ccc(O)c2c1C[C@H]1C[C@H]3C(N(C)C)C(O)=C(C(N)=O)C(=O)[C@@]3(O)C(O)=C1C2=O` (stereo partly drawn) [ED], the MIC in test [1] (setting [5]) and in test [2] (setting [6]) was < 4 µg/mL throughout.

Turning to `CN(C)c1cc(CN2CCC3CCCCC3C2)c(O)c2c1C[C@H]1C[C@H]3[C@H](N(C)C)C(O)=C(C(N)=O)C(=O)[C@@]3(O)C(O)=C1C2=O` (stereo partly drawn), the MIC in test [1] (setting [7]) and in test [2] (setting [8]) was < 4 µg/mL throughout.

As for `CCOCc1cccc(-c2ccc(O)c3c2C[C@H]2C[C@H]4[C@H](N(C)C)C(O)=C(C(N)=O)C(=O)[C@@]4(O)C(O)=C2C3=O)c1`, the MIC in test [1] (setting [9]) and in test [2] (setting [10]) was < 4 µg/mL throughout.

Regarding `Cc1cc(C)cc(-c2cc(N(C)C)c3c(c2O)C(=O)C2=C(O)[C@]4(O)C(=O)C(C(N)=O)=C(O)[C@@H](N(C)C)[C@@H]4C[C@@H]2C3)c1`, the MIC in test [1] (setting [9]) and in test [2] (setting [10]) was < 4 µg/mL in each case.

For `CN(C)[C@@H]1C(O)=C(C(N)=O)C(=O)[C@@]2(O)C(O)=C3C(=O)c4c(O)ccc(/C=C/c5ccccc5)c4C[C@H]3C[C@@H]12`, the MIC in test [1] (setting [9]) and in test [2] (setting [10]) was < 4 µg/mL each time.

For `CC(=O)c1ccc(-c2ccc3c(c2O)C(=O)C2=C(O)[C@]4(O)C(=O)C(C(N)=O)=C(O)[C@@H](N(C)C)[C@@H]4[C@@H](O)[C@@H]2[C@H]3C)cc1`, the MIC in test [1] (setting [7]) and in test [2] (setting [8]) was < 4 µg/mL in each case.

With `CN(C)CCNC(=O)c1cccc(-c2ccc(O)c3c2C[C@H]2C[C@H]4[C@H](N(C)C)C(O)=C(C(N)=O)C(=O)[C@@]4(O)C(O)=C2C3=O)c1`, the MIC in test [1] (setting [7]) was < 4 µg/mL; in test [2] (setting [8]), > 4 µg/mL.

`CN(C)CC#Cc1cc(N(C)C)c2c(c1O)C(=O)C1=C(O)[C@]3(O)C(=O)C(C(N)=O)=C(O)[C@@H](N(C)C)[C@@H]3C[C@@H]1C2`: the MIC in test [1] (setting [9]) and in test [2] (setting [10]) was > 4 µg/mL throughout.

Consider `CCCCC#Cc1cc(N(C)C)c2c(c1O)C(=O)C1=C(O)[C@]3(O)C(=O)C(C(N)=O)=C(O)[C@@H](N(C)C)[C@@H]3C[C@@H]1C2`, for which the MIC in test [1] (setting [7]) and in test [2] (setting [8]) was < 4 µg/mL each time.

`CN(C)[C@@H]1C(O)=C(C(N)=O)C(=O)[C@@]2(O)C(O)=C3C(=O)c4c(O)ccc(C#Cc5ccccc5F)c4C[C@H]3C[C@@H]12`: the MIC in test [1] (setting [9]) and in test [2] (setting [10]) was < 4 µg/mL each time.

As to `COc1ccc(CNCc2cccc(C)c2)cc1-c1ccc(O)c2c1C[C@H]1C[C@H]3C(N(C)C)C(O)=C(C(N)=O)C(=O)[C@@]3(O)C(O)=C1C2=O` (stereo partly drawn) [HO], the MIC in test [1] (setting [5]) and in test [2] (setting [6]) was < 4 µg/mL throughout.

Regarding `CN1CCN(Cc2ccc(-c3cc(N(C)C)c4c(c3O)C(=O)C3=C(O)[C@]5(O)C(=O)C(C(N)=O)=C(O)[C@@H](N(C)C)[C@@H]5C[C@@H]3C4)o2)CC1`, the MIC is < 4 µg/mL in test [1] (setting [7]) and > 4 µg/mL in test [2] (setting [8]).

For `CN(C)[C@@H]1C(O)=C(C(N)=O)C(=O)[C@@]2(O)C(O)=C3C(=O)c4c(O)ccc(-c5ccc(CNCCc6ccc(Cl)cc6)cc5)c4C[C@H]3C[C@@H]12`, the MIC in test [1] (setting [7]) and in test [2] (setting [8]) was < 4 µg/mL throughout.

`CN(C)c1cc(CNCC(=O)O)c(O)c2c1C[C@H]1C[C@H]3[C@H](N(C)C)C(O)=C(C(N)=O)C(=O)[C@@]3(O)C(O)=C1C2=O`: the MIC in test [1] (setting [7]) and in test [2] (setting [8]) was > 4 µg/mL throughout.

Consider `CC(C)S(=O)(=O)NCC#Cc1cc(N(C)C)c2c(c1O)C(=O)C1=C(O)[C@]3(O)C(=O)C(C(N)=O)=C(O)[C@@H](N(C)C)[C@@H]3C[C@@H]1C2` [DI], for which the MIC in test [1] (setting [5]) and in test [2] (setting [6]) was > 4 µg/mL in each case.

Turning to `CCONC(C)c1ccc(O)c2c1C[C@H]1C[C@H]3[C@H](N(C)C)C(O)=C(C(N)=O)C(=O)[C@@]3(O)C(O)=C1C2=O` (stereo partly drawn), the MIC in test [1] (setting [7]) and in test [2] (setting [8]) was < 4 µg/mL in each case.

Turning to `CN(C)c1cc(NC(=O)Nc2cccc3ccccc23)c(O)c2c1C[C@H]1C[C@H]3[C@H](N(C)C)C(O)=C(C(N)=O)C(=O)[C@@]3(O)C(O)=C1C2=O` [S], the figures for the MIC in test [1] (setting [5]) and in test [2] (setting [6]) were < 4 µg/mL and > 4 µg/mL, respectively.

For `CN(C)c1cc(C#Cc2cccc(O)c2)c(O)c2c1C[C@H]1C[C@H]3[C@H](N(C)C)C(O)=C(C(N)=O)C(=O)[C@@]3(O)C(O)=C1C2=O` [AJ], the MIC was < 4 µg/mL in test [1] (setting [5]) and > 4 µg/mL in test [2] (setting [6]).

On to `CN(C)c1ccc(-c2cc(I)c(O)c3c2C[C@H]2C[C@H]4[C@H](N(C)C)C(O)=C(C(N)=O)C(=O)[C@@]4(O)C(O)=C2C3=O)cc1`, for which the MIC in test [1] (setting [7]) is < 4 µg/mL; in test [2] (setting [8]) it was > 4 µg/mL.

In the case of `CN(C)[C@@H]1C(O)=C(C(N)=O)C(=O)[C@@]2(O)C(O)=C3C(=O)c4c(O)ccc(C#CC5=CCCCC5)c4C[C@H]3C[C@@H]12`, the MIC in test [1] (setting [9]) and in test [2] (setting [10]) was < 4 µg/mL in each case.

As to `CC(C)CNCc1ccc(O)c2c1C[C@H]1C[C@H]3C(N(C)C)C(O)=C(C(N)=O)C(=O)[C@@]3(O)C(O)=C1C2=O` (stereo partly drawn) [NF], the MIC in test [1] (setting [5]) and in test [2] (setting [6]) was < 4 µg/mL throughout.

In the case of `COc1cccc(C#Cc2cc(N(C)C)c3c(c2O)C(=O)C2=C(O)[C@]4(O)C(=O)C(C(N)=O)=C(O)[C@@H](N(C)C)[C@@H]4C[C@@H]2C3)c1`, the MIC in test [1] (setting [7]) and in test [2] (setting [8]) was < 4 µg/mL throughout.

With `C[C@H]1c2ccc(NC(=O)Oc3ccc(F)cc3)c(O)c2C(=O)C2=C(O)[C@]3(O)C(=O)C(C(N)=O)=C(O)[C@@H](N(C)C)[C@@H]3[C@@H](O)[C@@H]21` [V], the MIC in test [1] (setting [3]) and in test [2] (setting [4]) was > 4 µg/mL throughout.

In the case of `COCc1cccc(-c2ccc(O)c3c2C[C@H]2C[C@H]4[C@H](N(C)C)C(O)=C(C(N)=O)C(=O)[C@@]4(O)C(O)=C2C3=O)c1`, the MIC in test [1] (setting [7]) and in test [2] (setting [8]) was < 4 µg/mL each time.

Consider `CN(C)[C@@H]1C(O)=C(C(N)=O)C(=O)[C@@]2(O)C(O)=C3C(=O)c4c(O)ccc(-c5ccncc5F)c4C[C@H]3C[C@@H]12`, for which the MIC in test [1] (setting [7]) and in test [2] (setting [8]) was < 4 µg/mL throughout.

As for `CC(C)COC(=O)Nc1cc(N(C)C)c2c(c1O)C(=O)C1=C(O)[C@]3(O)C(=O)C(C(N)=O)=C(O)[C@@H](N(C)C)[C@@H]3C[C@@H]1C2` [DU], the MIC in test [1] (setting [5]) was < 4 µg/mL; in test [2] (setting [6]) it was > 4 µg/mL.
